A short description of data set [1]: absolute recovery over vacuum-assisted evaporative concentration; higher = better recovery. The conditions noted are these: enrichment method: VEC. The procedure, abridged:
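Absolute recovery was calculated as (response ratio pre − unspiked)/(post − unspiked) × 100 from averages of ≥ 2 replicates. Influent (6 mL), effluent (15 mL), and surface and nanopure water (60 mL) samples were spiked with standards before concentration, after concentration, or not at all, at 200 ng/L for nanopure and surface water or 1000 ng/L for wastewater, with class- and compound-specific adjustments. Samples were evaporated at 55 °C and 20 mbar to about 0.3 mL, made up to 0.4 mL and centrifuged, then internal standards were added before LC-HRMS/MS analysis.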

Data set [2] in a line: LC retention time (Atlantis T3, 5-95% MeOH gradient, 0.1% formic acid); higher = more retained / less polar. The procedure, abridged: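 Retention times were recorded for reference standards on a polar reversed-phase C18 column. The standards were of purity ≥ 95%, and the Atlantis T3 column (3 × 150 mm, 3 μm) was run at 0.3 mL/min with a gradient from 5 to 95% methanol over 17.5 min, both water and methanol containing 0.1% formic acid. Detection used high-resolution tandem mass spectrometry on a QExactive Plus, with positive and negative electrospray in separate runs, and peaks were integrated in TraceFinder (5 ppm tolerance, at least three points per peak) before being checked by hand.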

The nature of data set [3]: absolute recovery over mixed-bed multilayer solid-phase extraction; higher = better recovery. The conditions noted are these: enrichment method: SPE. The gist of the method: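 Absolute recovery was calculated by comparing background-corrected response ratios of samples spiked before extraction with those spiked after it, averaged over at least two replicates. Wastewater (100–250 mL, adjusted to pH 6.5 and glass-fibre filtered) or 1000 mL of unfiltered nanopure water was passed through a three-layer mixed-bed cartridge and eluted with basic and then acidic ethyl acetate/methanol. Standards were added before extraction, after extraction, or not at all, at 200 ng/L in water or 1000 ng/L in wastewater, with exceptions for some classes. Internal standards were added afterwards, and samples were analysed by liquid chromatography with high-resolution tandem mass spectrometry in both ionisation modes.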

Each structure is given as a SMILES string.

Take `COc1ccc(CC[NH+](C)CCCC(C#N)(c2ccc(OC)c(OC)c2)C(C)C)cc1OC` (centres undefined) [Verapamil]: the absolute recovery in data set [1] (wastewater effluent) came to 98.2%; in data set [1] (wastewater influent) it was 97.4%. This molecule came in with an LC retention time in data set [2] of 15.1 min.
Take `O=C(c1ccccc1)c1ccc(Cl)cc1` [4-Chlorobenzophenone]: the absolute recovery was 83.1% in data set [3] (nanopure water), 97.1% in data set [3] (surface water), 86.1% in data set [3] (wastewater effluent) and 37.3% in data set [3] (wastewater influent). Also, in data set [2], the LC retention time was determined as 20.9 min.
As for `Nc1ncnc2c1ncn2C1OC(CO)C(O)C1O` (centres undefined) [Adenosine], the values for the absolute recovery in data set [3] (nanopure water), in data set [3] (surface water) and in data set [3] (wastewater effluent) were 82%, 69.4% and 73.7%, respectively. In data set [2], this molecule showed an LC retention time of 7.57 min.
In data set [3] (nanopure water), `Nc1nc(N)[nH+]c(N)n1` [Melamin] displayed an absolute recovery of 21.3%. The molecule also gave an LC retention time in data set [2] of 3.5 min.
For `C[N-]S(=O)(=O)C(F)(F)C(F)(F)C(F)(F)C(F)(F)C(F)(F)C(F)(F)C(F)(F)C(F)(F)F` [N-MeFOSA], the absolute recovery in data set [3] (surface water) came to 50.3%; in data set [3] (wastewater effluent), 61.7%. In data set [2], the LC retention time was 22.3 min.
`Nc1ccc2c(S(=O)(=O)[O-])cccc2c1S(=O)(=O)[O-]` [2-amino-1-5-napthalenedisulfonic-acid] returned an LC retention time in data set [2] of 4.35 min.
With `C[NH2+]CC(O)c1ccc(O)c(O)c1` (centres undefined) [Epinephrine], the absolute recovery in data set [3] (nanopure water) was determined as 40.2%; in data set [3] (surface water) it was 12.7%; in data set [3] (wastewater effluent), 15.9%; in data set [3] (wastewater influent), 26.6%. In data set [2], this molecule gave an LC retention time of 3.27 min.
For the molecule `CC(=O)Nc1c(C)n(C)n(-c2ccccc2)c1=O` [4-Acetamidoantipyrin (=N-Acetyl-4-Aminoantipyrin, 4-AAA)], the absolute recovery worked out at 96% in data set [3] (nanopure water), 84.5% in data set [3] (surface water) and 87.5% in data set [3] (wastewater effluent). The LC retention time in data set [2] was found to be 11.9 min.
On to `Cc1cc([N-]S(=O)(=O)c2ccc(N)cc2)no1` [Sulfamethoxazol], for which the results for the absolute recovery in data set [1] (wastewater effluent) and in data set [1] (wastewater influent) were 102% and 113%, respectively. In data set [2], this molecule yielded an LC retention time of 13 min.
With `CNC(=O)Oc1cc(C)c(S(C)=O)c(C)c1` (centres undefined) [Methiocarb-sulfoxide], the absolute recovery in data set [3] (nanopure water) is 75.7%; in data set [3] (surface water), 83%; in data set [3] (wastewater effluent), 77.8%; in data set [3] (wastewater influent), 58.2%. The LC retention time in data set [2] is 13.7 min.
With `[NH3+]C(CC(=O)N1CCn2c(nnc2C(F)(F)F)C1)Cc1cc(F)c(F)cc1F` (centres undefined) [Sitagliptin], the absolute recovery turned out to be 53.8% in data set [3] (nanopure water) and 67.1% in data set [3] (surface water). Besides, the LC retention time in data set [2] was 12.6 min.
`CC(C(=O)[O-])c1cccc(C(=O)c2ccccc2)c1` (centres undefined) [Ketoprofen]: the absolute recovery in data set [1] (wastewater effluent) is 110%; in data set [1] (wastewater influent), 96.4%. For the same molecule, the LC retention time in data set [2] worked out at 18.8 min.
With `COc1cc(NC(C)CCC[NH3+])c2ncccc2c1` (centres undefined) [Primaquine], the figures for the absolute recovery in data set [1] (wastewater effluent) and in data set [1] (wastewater influent) were 60.5% and 37.5%, respectively. Also, the LC retention time in data set [2] is 14.4 min.
Regarding `CCc1cc(C)cc(CC)c1-c1c(OC(=O)C(C)(C)C)n2n(c1=O)CCOCC2` [Pinoxaden], the absolute recovery was determined as 51.6% in data set [1] (wastewater effluent) and 10.7% in data set [1] (wastewater influent). The molecule further showed an LC retention time in data set [2] of 21.2 min.
Take `C[NH2+]CC(O)c1cccc(O)c1` (centres undefined) [Phenylephrine]: the absolute recovery in data set [3] (nanopure water) was determined as 83.2%; in data set [3] (surface water), 82%; in data set [3] (wastewater effluent), 78.5%; in data set [3] (wastewater influent), 86.1%. Further, the LC retention time in data set [2] stood at 5.47 min.
`N#Cc1nn(-c2c(Cl)cc(C(F)(F)F)cc2Cl)c(N)c1C(F)(F)F` [Fipronil-desulfinyl] yielded an absolute recovery in data set [3] (nanopure water) of 139%. Besides, the LC retention time in data set [2] came to 20.2 min.
`O=[N+]([O-])c1ccc(C2OC2c2ccc([N+](=O)[O-])cc2S(=O)(=O)[O-])c(S(=O)(=O)[O-])c1` (centres undefined) [1-2-Bis-(4-4-dinitro-2-2-disulfonic acid-phenylethylenoxide] came in with an absolute recovery in data set [3] (nanopure water) of 106%. This molecule came in with an LC retention time in data set [2] of 19.7 min.
For the molecule `Cc1c(NC=O)c(=O)n(-c2ccccc2)n1C` [4-Formylaminoantipyrin (=4-FAA)], the absolute recovery was 101% in data set [3] (nanopure water), 93.6% in data set [3] (surface water), 90.2% in data set [3] (wastewater effluent) and 103% in data set [3] (wastewater influent). In data set [2], this molecule had an LC retention time of 11.7 min.
Take `O=C([O-])C(F)(F)C(F)(F)C(F)(F)C(F)(F)C(F)(F)F` [PFHxA]: the absolute recovery in data set [1] (wastewater effluent) was 95.2%; in data set [1] (wastewater influent), 89.4%. Moreover, in data set [2], the LC retention time turned out to be 18.8 min.
Regarding `O=C([O-])C(F)(F)C(F)(F)C(F)(F)C(F)(F)C(F)(F)C(F)(F)C(F)(F)F` [PFOA], the results for the absolute recovery in data set [1] (wastewater effluent) and in data set [1] (wastewater influent) were 87.3% and 90%, respectively. Moreover, in data set [2], the LC retention time was 20 min.
In turn, `[NH3+]CCc1ccc(O)c(O)c1` [Dopamine] gave an absolute recovery in data set [3] (nanopure water) of 23.9%. The molecule further gave an LC retention time in data set [2] of 4.36 min.
Consider `NC(=O)N=C(N)N` [Guanylurea], for which, in data set [3] (nanopure water), the absolute recovery is 42.6%. Besides, the LC retention time in data set [2] was 3.13 min.
Turning to `Oc1ccc(C=Cc2cc(O)cc(O)c2)cc1` [Resveratrol], the absolute recovery in data set [3] (nanopure water) is 57.8%; in data set [3] (surface water), 66.6%; in data set [3] (wastewater effluent), 48.4%; in data set [3] (wastewater influent) it was 68.9%. The molecule further showed an LC retention time in data set [2] of 15.5 min.
Molecule `O=c1ncnc2[nH][nH]cc1-2` [Allopurinol] gave an absolute recovery in data set [3] (nanopure water) of 113%. In data set [2], this molecule came in with an LC retention time of 6.21 min.
Consider `CCc1cccc(CC)c1N(COC)C(=O)CS(=O)(=O)[O-]` [Alachlor-ESA], for which, in data set [1] (wastewater influent), the absolute recovery turned out to be 106%. Moreover, in data set [2], the LC retention time is 17.2 min.
As for `C#CCN1C(=O)COc2cc(F)c(N3C(=O)C4=C(CCCC4)C3=O)cc21` [Flumioxazin], the absolute recovery in data set [3] (nanopure water) is 99.7%; in data set [3] (surface water), 77.4%; in data set [3] (wastewater effluent), 91.6%; in data set [3] (wastewater influent), 64%. The LC retention time in data set [2] is 18.8 min.
On to `CCOCN(C(=O)CS(=O)(=O)[O-])c1c(C)cccc1CC` [Acetochlor-ESA], for which the absolute recovery in data set [1] (wastewater influent) stood at 108%. Also, in data set [2], the LC retention time is 17.2 min.
In data set [2], `CC(=O)NCCCS(=O)(=O)[O-]` [Acamprosat] came in with an LC retention time of 4.93 min.
Regarding `[NH3+]C(CO)(CO)CO` [Trometamol], the absolute recovery in data set [1] (wastewater effluent) was determined as 105%; in data set [1] (wastewater influent) it was 73.2%. The LC retention time in data set [2] stood at 2.85 min.
`O=C([O-])C(F)(F)C(F)(F)C(F)(F)C(F)(F)F` [PFPA]: the LC retention time in data set [2] was determined as 12.4 min.
In the case of `CC[N-]S(=O)(=O)C(F)(F)C(F)(F)C(F)(F)C(F)(F)C(F)(F)C(F)(F)C(F)(F)C(F)(F)F` [N-EtFOSA], the figures for the absolute recovery in data set [3] (surface water) and in data set [3] (wastewater effluent) were 57.6% and 66.9%, respectively. This molecule returned an LC retention time in data set [2] of 22.8 min.
As to `CCC(C)(C)C(=O)OC1CC(C)C=C2C=CC(C)C(CCC3CC(O)CC(=O)O3)C21` (centres undefined) [Simvastatin], the LC retention time in data set [2] amounted to 22.9 min.
On to `CNC(=C[N+](=O)[O-])NCCSCc1ccc(C[NH+](C)C)o1` [Ranitidin], for which the absolute recovery in data set [1] (wastewater effluent) was 102%; in data set [1] (wastewater influent), 98.7%. The LC retention time in data set [2] stood at 8.64 min.
As for `COC(=O)c1ccccc1S(N)(=O)=O` [2-Aminosulfonyl-benzoicacid-methylester], the absolute recovery was found to be 118% in data set [3] (nanopure water), 101% in data set [3] (surface water), 102% in data set [3] (wastewater effluent) and 91.4% in data set [3] (wastewater influent). The molecule also displayed an LC retention time in data set [2] of 12.9 min.
Regarding `CC1(C)SC2C([NH3+])C(=O)N2C1C(=O)[O-]` (centres undefined) [6-Aminopenicillanic-acid], the absolute recovery in data set [1] (wastewater effluent) was determined as 90.3%; in data set [1] (wastewater influent) it was 86.7%. In data set [2], this molecule registered an LC retention time of 4.79 min.
Take `CCOC(=O)Nc1cccc(OC(=O)Nc2ccccc2)c1` [Desmedipham D]: the absolute recovery in data set [3] (nanopure water) came to 90.8%; in data set [3] (surface water), 117%; in data set [3] (wastewater effluent), 106%; in data set [3] (wastewater influent) it was 76.2%. This molecule also displayed an LC retention time in data set [2] of 18.6 min.
As for `CCCN(CCC)C(=O)SCc1ccccc1` [Prosulfocarb], the absolute recovery in data set [3] (nanopure water) came out at 38.9%; in data set [3] (surface water), 35.1%; in data set [3] (wastewater effluent) it was 43.2%. In data set [2], the LC retention time was found to be 11.5 min.
With `Oc1ccc(C(F)(F)F)cc1` [4-(Trifluoromethyl)phenol], the absolute recovery in data set [3] (nanopure water) was determined as 68.5%; in data set [3] (wastewater effluent), 71.8%; in data set [3] (wastewater influent), 95.1%. In data set [2], this molecule registered an LC retention time of 18.3 min.
`OCC(O)C(O)C(OC1OC(CO)C(O)C(O)C1O)C(O)CO` [D-Lactitol] registered an LC retention time in data set [2] of 2.76 min.
In data set [3] (nanopure water), `CC1=CC(=O)[N-]S(=O)(=O)O1` [Acesulfam] returned an absolute recovery of 93.2%. The molecule further yielded an LC retention time in data set [2] of 9.43 min.
As for `Nc1c(I)c(C(=O)[O-])c(I)c(C(=O)[O-])c1I` [5-Amino-2-4-6-triiodoisophthalic-acid], the LC retention time in data set [2] turned out to be 10.2 min.
Regarding `CN(CC(=O)[O-])S(=O)(=O)C(F)(F)C(F)(F)C(F)(F)C(F)(F)C(F)(F)C(F)(F)C(F)(F)C(F)(F)F` [N-MeFOSAA], the absolute recovery in data set [3] (surface water) came out at 80%; in data set [3] (wastewater effluent) it was 95.4%. In data set [2], this molecule showed an LC retention time of 23.3 min.
With `O=c1ccc(=O)[nH][n-]1` [Maleic-hydrazide], in data set [3] (surface water), the absolute recovery is 12.8%. Moreover, in data set [2], the LC retention time came to 5.88 min.

Source of the values: the supplement of paper PMC6470124.
